Experimental data taken from patent publication US20210179714A1, “Inhibition of CTLA-4 and/or PD-1 For Regulation of T Cells” (MEMORIAL SLOAN KETTERING CANCER CENTER, priority 2017, published 2021).

Tests used:
4PD1^hi [1] = experiment: 4PD1hi and Treg frequency/phenotype in tumor-bearing mice under treatment (FACS, immunofluorescence); format: in vivo, mouse
Protocol: (§1) B16 melanoma cells were implanted intradermally (10^5 cells, for tumor-growth and survival analyses) or subcutaneously in matrigel (Matrigel Matrix Growth Factor Reduced, Becton Dickinson) (2×10^5 cells, for immune-cell infiltrate analyses) in C57BL/6J mice. Vaccination with VRP-TRP2 (AlphaVax Inc.) was performed by injection of 1×10^6 virus-like replicon particles (VRPs) (Zappasodi and Merghoub, 2015) expressing mouse TRP2 into the plantar surface of each footpad for 3 times 1 week apart, starting 3 days after tumor implantation (Avogadri et al., 2014). Treatment with anti-CTLA-4 (clone 9D9, 100 μg or 300 μg/injection), anti-PD-1 (clone RMP1-14, 250 μg/injection), or the matched isotype IgGs (BioXcell) was started 3-4 (optimal treatment) or 6-7 days (suboptimal treatment) after tumor implantation for respectively 5 or 4 intraperitoneal (i.p.) administrations 3 days apart. Immunization with sRBC was performed i.p. with 200 μl 10% volume/volume sRBC solution (Innovative Research). The Bcl6 inhibitor 79.6 (Calbiochem) was administered daily i.p. in 10% DMSO at 50 mg/kg (Cerchietti et al., 2010). TUBO breast carcinoma cells were implanted subcutaneously in Balb/c mice (10^6 cells/mouse) and anti-CTLA-4 treatment was started 10 days after. Animals were monitored at least twice a week and were considered tumor-free until intradermal lesions were palpable.
(§2) Tumors were dissociated after 30 min incubation with Liberase TL and DNAse I (Roche) to obtain single-cell suspensions. When tumor mass exceeded 0.1 gr, immune-cell infiltrates were enriched by Percoll (GE Healthcare) gradient centrifugation. Cells from tumor-draining lymph nodes and spleens were prepared by mechanical dissociation on 40 μM filters and RBC lysis (ACK buffer, Lonza). Mouse PB was collected by retro-orbital puncture and RBC were lysed with Pharm Lyse Buffer (BD Bioscences). […]

B16 melanoma = experiment: Tumor growth and tumor-free survival in tumor-bearing mice; format: in vivo, mouse
Protocol: as §1

4PD1^hi [2] = experiment: FACS monitoring of circulating 4PD1hi in advanced NSCLC patients during immune checkpoint blockade; format: in vivo, human
Protocol: To evaluate the role of 4PD1^hi in the development of anti-tumor immune responses in vivo, we monitored this cell population in cancer patients treated with immune checkpoint blockade. To detect human PD-1, we employed a mAb whose binding is not cross-blocked by the therapeutic αPD-1 Abs nivolumab or pembrolizumab (FIG. 7A). […] We thus explored in mice the capability of αCTLA-4 monotherapy to increase 4PD1^hi in a dose-dependent manner, by treating with 100 μg (standard dose in mice) or a higher amount (300 μg) of αCTLA-4 (FIG. 8B). […] Furthermore, in different mouse strains (C57BL/6J and Balb/c) we observed that the presence of tumor contributes to anti-CTLA-4-mediated induction of 4PD1^hi.
(§3) All patients and healthy donors signed an approved informed consent before providing tissue samples. Patient samples were collected on a tissue-collection protocol approved by the MSKCC Institutional Review Board and processed as described (Holmgaard et al., 2015).
as §2, with “Lonza).” for “Lonza). Mouse PB was collected by retro-orbital puncture and RBC were lysed with Pharm Lyse Buffer (BD Bioscences).”

4PD1^hi [3] = experiment: FACS monitoring of circulating 4PD1hi / CD4+ T-cell subsets in advanced melanoma patients during immune checkpoint blockade; format: in vivo, human; details: for circulating 4PD1hi frequency: metastatic melanoma patients, ipilimumab n=47, pembrolizumab n=52, relative to baseline
Source text: We further confirmed the results achieved in NSCLC patients in larger cohorts of metastatic melanoma patients treated with ipilimumab (FIG. 8C, αCTLA-4, n=47) or the αPD-1 pembrolizumab (FIG. 8C, n=52, 50/52 upon relapse on ipilimumab). αCTLA-4 increased circulating 4PD1^hi, while administration of αPD-1 reduced their frequency (FIG. 8C). We further substantiated the capability of αPD-1 (pembrolizumab) to down-regulate 4PD1hi in an independent cohort of melanoma patients (Huang et al., 2017) (FIG. 8F).
as §3
Tumors were dissociated after 30 min incubation with Liberase TL and DNAse I (Roche) to obtain single-cell suspensions. When tumor mass exceeded 0.1 gr, immune-cell infiltrates were enriched by Percoll (GE Healthcare) gradient centrifugation. Cells from tumor-draining lymph nodes and spleens were prepared by mechanical dissociation on 40 μM filters and RBC lysis (ACK buffer, Lonza). Mouse PB was collected by retro-orbital puncture and RBC were lysed with Pharm Lyse Buffer (BD Bioscences). Surface staining of mouse cells was performed after 15 min pre-incubation with anti-mouse CD16/CD32 Ab (clone 2.4G2; BD Biosciences) to block FcγR binding, with panels of appropriately diluted fluorochrome-conjugated Abs (from BD Biosciences, eBioscience or Invitrogen) against the following mouse proteins in different combinations: CD45 (clone 30-F11), CD45.1 (clone A20), CD4 (clone RM4-5), CD8a (clone 5H10), Thy1.1 (clone OX-7), B220 (RA3-6B2), CD19 (clone 1D3), PD-1 (RMP1-30), CD44 (clone IM7), CD62L (clone MEL-14), CD25 (clone PC61.5), CD86 (clone GL-1), I-A/I-E (clone M5/114.15.2), PD-L1 (clone MIH5), ICOS (clone C398.4A), CXCR5 (biotin-conjugated clone 2G8, followed by PE-/APC-labeled streptavidin staining), and a eFluor506 fixable viability dye. For intracellular staining, mouse cells were fixed and permeabilized (Foxp3 fixation/permeabilization buffer, eBioscience) and incubated with appropriately diluted PECF594-labeled anti-Bcl6 (clone K112-91, BD Biosciences), PECy7-labeled anti-Ki67 (clone B56, BD Biosciences), and FITC-labeled anti-Foxp3 (clone FJK-16s, eBioscience) Abs. Surface staining of human cells was performed in the presence of FcγR Blocking reagent (Miltenyi Biotec) with proper dilutions of fluorochrome-conjugated Abs (from BD Biosciences, eBioscience or Tonbo) against the following human proteins in different combinations: CD45 (clone HI30), CD45RA (clone HI100), CD4 (clone RPA-T4), PD-1 (clone MIH4 or J105 in anti-PD-1-treatment naïve samples), CD25 (clone MA251), ICOS (clone ISA-3), CXCR5 (clone RF8B2), CD19 (clone HIB19), and CD86 (clone FUN-1), and a eFluor506 fixable viability dye. For intracellular staining, human cells were fixed and permeabilized (Foxp3 fixation/permeabilization buffer, eBioscience) and then incubated with appropriately diluted eFuor450-labeled anti-Foxp3 (clone PCH101, eBiosciences), PECF594-labeled anti-Bcl6 (clone K112-91), and APC-labeled anti-CTLA-4 (clone BNI3, BD Biosciences) Abs.

circulating B cells = experiment: CD86 expression on circulating B cells of metastatic melanoma patients; format: in vivo, human; details: ipilimumab 3 mg/kg q3 wks, n=16
Protocol: as §3, §2

Compound: O=C(O)CC(C(=O)O)n1c(O)c(C2=c3cc(Br)ccc3=NC2=O)sc1=S (stereo not shown) [Bcl6 inhibitor]
- intra-tumor Tregs (4PD1^hi [1]; Bcl6 inhibition): favored intra-tumor Treg expansion
- total CD4+ or CD8+ T-cell intra-tumor infiltration (4PD1^hi [1]; Bcl6 inhibition): did not find significant increases
- 4PD1hi in the periphery and at the tumor site (4PD1^hi [1]; Bcl6 inhibitor 50 mg/kg daily i.p.): effective in controlling
- anti-tumor activity in RAG KO mice (B16 melanoma; RAG KO mice lacking mature T and B cells, Bcl6 inhibition): completely lost
- tumor growth (B16 melanoma; WT mice, Bcl6 inhibitor, also in the context of CTLA-4 blockade and high baseline 4PD1hi): modestly (but significantly) delayed tumor growth

Compound: ipilimumab
- circulating 4PD1hi (4PD1^hi [2]; NSCLC patients, ipilimumab 1 or 3 mg/kg added to nivolumab 1 mg/kg, compared with nivolumab monotherapy): proportional increases
- ICOS expression in CD4+ T cell subsets (4PD1^hi [3]; melanoma cohort, 4PD1neg, Tregs and 4PD1hi): induced ICOS expression
- circulating 4PD1hi frequency (4PD1^hi [3]): increased
- CD86 on circulating B cells (circulating B cells): up-regulation

Compound: nivolumab
- peripheral 4PD1hi frequency (4PD1^hi [2]; metastatic NSCLC patients, nivolumab monotherapy (nivo3, 3 mg/kg q2 wks, n=10), relative to baseline): reduced

Compound: pembrolizumab
- 4PD1hi frequency, independent cohort (4PD1^hi [3]; independent cohort of melanoma patients, pembrolizumab 2 mg/kg q3 wks, n=18): down-regulate
- dose dependence of 4PD1hi down-regulation (4PD1^hi [3]; melanoma patients, higher dose of pembrolizumab (2 mg/kg or 10 mg/kg)): more efficient at down-regulating
- circulating 4PD1hi frequency (4PD1^hi [3]): reduced
